# Experimental data as given in US6903052B2, “Nematicidal compositions and methods” (Divergence, Inc., priority 2002, dated 2005).
# Legend:
# C. elegans [1] = assay: Nematicidal activity of single fatty acid methyl ester emulsions against Caenorhabditis elegans (Example 4); format: cell-based
# Experimental: Mixed stage Caenorhabditis elegans were washed off plates seeded with OP50 bacteria using M9 solution. 250 μl of the M9 solution, which contained about 50 worms, was pipetted into each well of a 24-well plate.
# (§1) Fatty acid methyl ester emulsions were prepared following the teachings of Kim et al (U.S. Pat. No. 5,698,592). Briefly, 1 ml 1% stock solution emulsions were prepared by mixing 10 μl of fatty acid methyl ester with 20 μl of the surfactant Igepal CO 630 in a 1.5 ml eppendorf tube. After careful mixing of fatty acid and Igepal CO 630, 850 μl of ddH20 was added and mixed by gentle pipetting until a homogeneous solution was obtained. Finally, 120 μl of pure isopropanol was added and mixed by gentle pipetting. This stock solution was then used to produce various fatty acid methyl ester dilution emulsions in 24-well plate assays.
# To each well, fatty acid emulsions or control emulsions were added and rapidly mixed by swirling. Nematode viability was scored by visual observation and motility assays at various time points 24 hours following addition of emulsions or controls. The fatty acid emulsions tested were methyl esters of nonanoic (pelargonic) acid, ricinoleic acid, vernolic acid, linoleic acid, oleic acid, and control emulsions lacking fatty acids.
# M. javanica [2] = assay: Nematicidal activity of fatty acid methyl ester emulsions, spectrum (Example 8); format: cell-based, Meloidogyne javanica; settings: M. javanica 2nd stage juveniles, scored at 48 hours
# Experimental: (§2) Briefly, the indicated fatty acid emulsions were added and rapidly mixed by swirling. Nematode viability was scored by visual observation and motility assays 24 hours following addition of emulsions (48 hours for plant parasitic nematodes Meloidogyne and Heterodera species). The fatty acid emulsions tested were methyl esters of nonanoic (pelargonic) acid, ricinelaidic acid, ricinoleic acid, vernolic acid, linoleic acid, and oleic acid. […] Results shown are mean % values obtained from multiple independent experiments
# (§3) The Caenorhabiditis elegans were mixed stage populations. Similar effects seen on several other free-living nematode species. The Parastrongyloides trichosuri (parasite of Australian bushtail possum) were dauer-like infective 3rd stage larva. Similar effects are also seen against free-living stages. The Meloidogyne incognita and Meloidogyne javanica (root knot nematode) were 2nd stage juveniles (dauer-like infective stage). The Heterodera glycines (soybean cyst nematode) were 2nd stage juveniles (dauer-like infective stage). Finally, the Pratylenchus scribneri (corn lesion nematode) were mixed stage populations.
# M. incognita [3] = assay: as above; format: cell-based, Meloidogyne incognita; settings: M. incognita 2nd stage juveniles, scored at 48 hours
# Experimental: as §2, §3
# H. glycines = assay: as above; format: cell-based, Heterodera glycines; settings: H. glycines 2nd stage juveniles, scored at 48 hours
# Experimental: as §2, §3
# C. elegans [4] = assay: Nematicidal activity of emulsions made with Tween-20 (replacing Igepal CO 630) against C. elegans; format: cell-based, Caenorhabditis elegans; settings: Tween-20 emulsion
# Experimental: Some nematodes assayed as described in Example 9 lacked tolerance to emulsions made with the surfactant Igepal CO 630. For this reason some assays were repeated with Tween-20-based emulsions.
# as §1, with “Briefly,” for “Fatty acid methyl ester emulsions were prepared following the teachings of Kim et al (U.S. Pat. No. 5,698,592). Briefly,”, “Tween-20” for “Igepal CO 630”, “Tween-20,” for “Igepal CO 630,”
# P. scribneri = assay: Nematicidal activity of fatty acid methyl ester emulsions, spectrum (Example 8); format: cell-based, Pratylenchus scribneri; settings: P. scribneri mixed stage
# Experimental: as §2, §3
# [5] = system: root knot nematodes (Meloidogyne spp.); assay: Nematicidal activity against root knot nematodes, summary statement; format: cell-based; settings: concentration of 0.1%
# Experimental: (§4) Meloidogyne incognita and javanica were prepared from tomato roots. The roots were bleached and the debris was separated from the J2 larvae and eggs by filtration followed by sucrose density gradient centrifugation. Eggs were hatched over 4 days at 15° C. and the J2 larvae were collected by passage though a filter, followed by centrifugation.
# (§5) Nematodes and emulsions were incubated with shaking at room temperature for 48 hours. The contents of each well were transferred to a small spot on individual NGM plates lacking bacteria. About 24 hours after the transfer to plates, worms on and off the inoculation spot were counted as not viable or viable, respectively. Worms were considered viable if they had crawled away from the inoculation spot, or if they were moving. Worms were considered non-viable if they remained at the inoculation spot.
# M. javanica [6] = assay: Nematicidal activity of fatty acid methyl ester emulsions against root knot nematode J2 larvae (Example 6); format: cell-based, Meloidogyne javanica; settings: 0.1% emulsion; 48 hours incubation, counted about 24 hours after transfer to plates
# Experimental: as §1, §4, §5
# M. incognita [7] = assay: as above; format: cell-based, Meloidogyne incognita; settings: 0.1% emulsion; 48 hours incubation, counted about 24 hours after transfer to plates
# Experimental: as §1, §4, §5
# C. elegans [8] = assay: Nematicidal activity of fatty acid methyl ester emulsions, spectrum (Example 8); format: cell-based, Caenorhabditis elegans; settings: C. elegans mixed stage
# Experimental: as §2, §3
# tomato seedlings = assay: Phytotoxicity evaluation on tomato seedlings; format: in vivo; settings: for Phytotoxic effect on tomato seedlings: 1% emulsion; for Visible effects on tomato seedlings: 250 μl of 1% emulsion applied to stem-media interface of two-week seedlings
# Experimental: Sterilized tomato seeds were germinated in magenta jars containing Gamborg's agar media. After two weeks of growth, seedlings were treated with 250 μl of 1% fatty acid methyl ester emulsion (nonanoic acid, ricinoleic acid, ricinelaidic acid, oleic acid, or a control emulsion lacking any fatty acid), applied directly to the stem-media interface. Tomato seedlings were scored at various times after application of emulsions.
# B. malayi = assay: Nematicidal activity of tween-based emulsions against microfilarial nematodes; format: cell-based, Brugia malayi
# Experimental: To each well, tween-based fatty acid emulsions were added and rapidly mixed by swirling. Nematode microfilaria viability was scored by visual observation of motility at 24 and 48 hours following addition of emulsions. The fatty acid emulsions tested were methyl esters of ricinoleic acid, vernolic acid, ricinelaidic acid, oleic acid, and control emulsions lacking fatty acids. The results of this study are presented in Table 7 as the percentage of non-motile microfilaria 24 hours after inoculation and in Table 8 as the percentage of non-motile microfilaria 48 hours after inoculation
# [9] = system: free-living, animal parasitic, and plant parasitic nematodes; assay: Nematicidal activity across the spectrum of nematodes, summary statement (Example 8); format: cell-based
# Experimental: as §2, §3
# P. trichosuri = assay: Nematicidal activity of fatty acid methyl ester emulsions, spectrum (Example 8); format: cell-based, Parastrongyloides trichosuri; settings: P. trichosuri infective 3rd stage larva
# Experimental: as §2, §3
# [10] = 24 hrs post-inoculation, 0.0008%
# [11] = 24 hrs post-inoculation, 0.0016%
# [12] = 24 hrs post-inoculation, 0.003%
# [13] = 24 hrs post-inoculation, 0.005%
# [14] = 24 hrs post-inoculation, 0.0067%
# [15] = 24 hrs post-inoculation, 0.008%
# [16] = 48 hrs post-inoculation, 0.0008%
# [17] = 48 hrs post-inoculation, 0.0016%
# [18] = 48 hrs post-inoculation, 0.003%
# [19] = 48 hrs post-inoculation, 0.005%
# [20] = 48 hrs post-inoculation, 0.0067%
# [21] = 48 hrs post-inoculation, 0.008%
smiles,measurement,setting,value
"CCCCCCCCC(=O)OC [Nonanoic (C9-methyl ester), pelargonic acid methyl ester, reference compound]",Percentage of Worm Death,"C. elegans [1]; 0.003% emulsion, 1 hr",50%
same,Percentage of Worm Death,"C. elegans [1]; 0.003% emulsion, 6 hr",50%
same,Percentage of Worm Death,"C. elegans [1]; 0.003% emulsion, 24 hr",50%
same,Percentage of Worm Death,"C. elegans [1]; 0.1% emulsion, 1 hr",100%
same,Percentage of Worm Death,"C. elegans [1]; 0.1% emulsion, 6 hr",100%
same,Percentage of Worm Death,"C. elegans [1]; 0.1% emulsion, 24 hr",100%
same,Nematicidal activity (in words),C. elegans [1]; concentration of 0.1%,strongly nematicidal
same,Onset of effect on nematode movement (in words),"C. elegans [1]; emulsion, C. elegans",almost immediate cessation of nematode movement and subsequent death
same,% Worm Death (48 hr),M. javanica [2]; 0.1% solution,100%
same,% Worm Death (24 hr),M. incognita [3]; 0.1% solution,100%
same,% Worm Death (24 hr),H. glycines; 0.01% solution,>95%
same,% Worm Death (24 hr),H. glycines; 0.1% solution,100%
same,% Worm Death (24 hr),C. elegans [4]; 0.001% solution,30%
same,% Worm Death (24 hr),C. elegans [4]; 0.01% solution,100%
same,% Worm Death (24 hr),C. elegans [4]; 0.1% solution,100%
same,% Worm Death (24 hr),P. scribneri; 0.01% solution,<20%
same,% Worm Death (24 hr),P. scribneri; 0.1% solution,<20%
same,Nematicidal activity (in words),[5],significant nematicidal activity
same,M. javanica (% not viable),M. javanica [6],100%
same,M. incognita (% not viable),M. incognita [7],100%
same,% Worm Death (24 hr),C. elegans [8]; 0.001% solution,30%
same,% Worm Death (24 hr),C. elegans [8]; 0.01% solution,100%
same,% Worm Death (24 hr),C. elegans [8]; 0.1% solution,100%
same,Phytotoxic effect on tomato seedlings,tomato seedlings; within 18 hours of application,distinct loss of turgor pressure (wilting phenotype)
same,Phytotoxic effect on tomato seedlings,tomato seedlings; within 24 hours,almost entirely bleached to a pale white color and had nearly totally collapsed
same,Visible effects on tomato seedlings,tomato seedlings,showed obvious effects on the tomatoes
"CCCCCCC(O)C/C=C/CCCCCCCC(=O)OC (stereo not drawn) [Ricinelaidic, 12-hydroxy-trans-9-octadecenoic acid methyl ester]",% Worm Death (48 hr),M. javanica [2]; 0.001% solution,˜60%
same,% Worm Death (48 hr),M. javanica [2]; 0.01% solution,100%
same,% Worm Death (48 hr),M. javanica [2]; 0.1% solution,100%
same,percentage of non-motile microfilaria,B. malayi; [10],0%
same,percentage of non-motile microfilaria,B. malayi; [11],19.1%
same,percentage of non-motile microfilaria,B. malayi; [12],100%
same,percentage of non-motile microfilaria,B. malayi; [13],100%
same,percentage of non-motile microfilaria,B. malayi; [14],100%
same,percentage of non-motile microfilaria,B. malayi; [15],100%
same,percentage of non-motile microfilaria,B. malayi; [16],0%
same,percentage of non-motile microfilaria,B. malayi; [17],49.4%
same,percentage of non-motile microfilaria,B. malayi; [18],100%
same,percentage of non-motile microfilaria,B. malayi; [19],100%
same,percentage of non-motile microfilaria,B. malayi; [20],100%
same,percentage of non-motile microfilaria,B. malayi; [21],100%
same,Microfilarialcidal activity (in words),B. malayi; tween-based emulsions,strong microfilarialcidal activity
same,Breadth of nematicidal activity (in words),[9],favorable nematicidal activity against a wide spectrum of divergent nematode genera
same,Nematicidal activity (in words),[9]; concentrations of 0.1% and 0.01%,strongly nematicidal
same,% Worm Death (24 hr),P. trichosuri; 0.01% solution,100%
same,% Worm Death (24 hr),P. trichosuri; 0.1% solution,100%
same,% Worm Death (24 hr),M. incognita [3]; 0.001% solution,97%
same,% Worm Death (24 hr),M. incognita [3]; 0.01% solution,˜99%
same,% Worm Death (24 hr),M. incognita [3]; 0.1% solution,˜99%
same,% Worm Death (24 hr),H. glycines; 0.001% solution,100%
same,% Worm Death (24 hr),H. glycines; 0.01% solution,100%
same,% Worm Death (24 hr),H. glycines; 0.1% solution,100%
same,% Worm Death (24 hr),C. elegans [4]; 0.001% solution,60%
same,% Worm Death (24 hr),C. elegans [4]; 0.01% solution,100%
same,% Worm Death (24 hr),C. elegans [4]; 0.1% solution,100%
same,% Worm Death (24 hr),P. scribneri; 0.01% solution,˜40%
same,% Worm Death (24 hr),P. scribneri; 0.1% solution,˜70%
same,% Worm Death (24 hr),C. elegans [8]; 0.001% solution,75%
same,% Worm Death (24 hr),C. elegans [8]; 0.01% solution,100%
same,% Worm Death (24 hr),C. elegans [8]; 0.1% solution,100%
same,Visible effects on tomato seedlings,tomato seedlings,none of the tomatoes treated with the other fatty acid methyl ester emulsions showed visible effects
"CCCCC[C@H]1O[C@H]1C/C=C\CCCCCCCC(=O)OC [Vernolic Acid (C18-methyl ester), (12,13)-epoxy-cis-9-octadecenoic acid methyl ester]",Percentage of Worm Death,"C. elegans [1]; 0.003% emulsion, 1 hr",20%
same,Percentage of Worm Death,"C. elegans [1]; 0.003% emulsion, 6 hr",20%
same,Percentage of Worm Death,"C. elegans [1]; 0.003% emulsion, 24 hr",20%
same,Percentage of Worm Death,"C. elegans [1]; 0.1% emulsion, 1 hr",65%
same,Percentage of Worm Death,"C. elegans [1]; 0.1% emulsion, 6 hr",65%
same,Percentage of Worm Death,"C. elegans [1]; 0.1% emulsion, 24 hr",75%
same,% Worm Death (48 hr),M. javanica [2]; 0.01% solution,60%
same,% Worm Death (48 hr),M. javanica [2]; 0.1% solution,90%
same,percentage of non-motile microfilaria,B. malayi; [10],0%
same,percentage of non-motile microfilaria,B. malayi; [11],0%
same,percentage of non-motile microfilaria,B. malayi; [12],0%
same,percentage of non-motile microfilaria,B. malayi; [13],66%
same,percentage of non-motile microfilaria,B. malayi; [14],100%
same,percentage of non-motile microfilaria,B. malayi; [15],100%
same,percentage of non-motile microfilaria,B. malayi; [16],0%
same,percentage of non-motile microfilaria,B. malayi; [17],0%
same,percentage of non-motile microfilaria,B. malayi; [18],5%
same,percentage of non-motile microfilaria,B. malayi; [19],100%
same,percentage of non-motile microfilaria,B. malayi; [20],100%
same,percentage of non-motile microfilaria,B. malayi; [21],100%
same,% Worm Death (24 hr),P. trichosuri; 0.01% solution,˜90%
same,% Worm Death (24 hr),P. trichosuri; 0.1% solution,˜95%
same,% Worm Death (24 hr),M. incognita [3]; 0.01% solution,73%
same,% Worm Death (24 hr),M. incognita [3]; 0.1% solution,98%
same,% Worm Death (24 hr),H. glycines; 0.001% solution,18%
same,% Worm Death (24 hr),H. glycines; 0.01% solution,20%
same,% Worm Death (24 hr),H. glycines; 0.1% solution,30%
same,% Worm Death (24 hr),P. scribneri; 0.01% solution,<20%
same,% Worm Death (24 hr),P. scribneri; 0.1% solution,<20%
same,Nematicidal activity (in words),[5],significant nematicidal activity
same,M. javanica (% not viable),M. javanica [6],90%
same,M. incognita (% not viable),M. incognita [7],100%
same,% Worm Death (24 hr),C. elegans [8]; 0.001% solution,30%
same,% Worm Death (24 hr),C. elegans [8]; 0.01% solution,50%
same,% Worm Death (24 hr),C. elegans [8]; 0.1% solution,80%
